Results on seven compounds are retold here after ChEMBL document CHEMBL3132769, “Fragment growing to retain or alter the selectivity of anchored kinase hinge-binding fragments” (Medchemcomm, 2014).

For assay [1], the target named is Tyrosine-protein kinase BTK (Homo sapiens) (UniProt Q06187). As to the kind of experiment: Inhibition of human full length BTK expressed in baculovirus assessed as substrate phosphorylation using fluorescence-labelled peptides as substrate at 420 uM after 90 mins by microfluidic peptide phosphorylation assay.
For assay [2], the target named is Tyrosine-protein kinase Lyn (Homo sapiens) (UniProt P07948). As to the kind of experiment: Inhibition of human full length LYN expressed in baculovirus assessed as substrate phosphorylation using fluorescence-labelled peptides as substrate at 420 uM after 90 mins by microfluidic peptide phosphorylation assay.
The target of assay [3] is Glycogen synthase kinase-3 beta (Homo sapiens) (UniProt P49841). As to the kind of experiment: Inhibition of human full length GSK-3 beta expressed in baculovirus assessed as substrate phosphorylation using fluorescence-labelled peptides as substrate at 95 uM after 90 mins by microfluidic peptide phosphorylation assay.
The test system of assay [4] is Fibroblast growth factor receptor 2 (Homo sapiens), P21802 [N549H]. As to the kind of experiment: Inhibition of human FGFR2 N549H mutant catalytic domain expressed in baculovirus assessed as substrate phosphorylation using fluorescence-labelled peptides as substrate at 95 uM after 90 mins by microfluidic peptide phosphorylation assay.
For assay [5], the target named is MAP kinase-activated protein kinase 3 (Homo sapiens) (UniProt Q16644). In words: Inhibition of human full length MAPKAPK3 expressed in Escherichia coli cell assessed as substrate phosphorylation using fluorescence-labelled peptides as substrate at 95 uM after 90 mins by microfluidic peptide phosphorylation assay.
For assay [6], the target named is T1, Interleukin-1 receptor-associated kinase 4 (Homo sapiens) (UniProt Q9NWZ3).
T1 sequence (whole entry): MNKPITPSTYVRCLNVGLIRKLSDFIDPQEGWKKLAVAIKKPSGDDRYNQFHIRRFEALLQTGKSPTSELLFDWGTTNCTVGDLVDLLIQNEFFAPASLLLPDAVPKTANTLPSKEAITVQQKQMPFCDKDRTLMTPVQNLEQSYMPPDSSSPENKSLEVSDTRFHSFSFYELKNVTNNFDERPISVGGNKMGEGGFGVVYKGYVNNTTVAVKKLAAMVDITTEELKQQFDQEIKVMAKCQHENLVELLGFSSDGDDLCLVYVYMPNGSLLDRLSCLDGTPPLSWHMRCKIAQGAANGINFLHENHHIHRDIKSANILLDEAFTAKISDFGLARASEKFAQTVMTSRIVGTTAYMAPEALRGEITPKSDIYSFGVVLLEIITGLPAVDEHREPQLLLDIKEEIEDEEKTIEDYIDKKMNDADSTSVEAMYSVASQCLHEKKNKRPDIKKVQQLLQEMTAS
In words: Inhibition of human IRAK4 catalytic domain expressed in baculovirus assessed as substrate phosphorylation using fluorescence-labelled peptides as substrate at 9 uM after 90 mins by microfluidic peptide phosphorylation assay.

In assay [7] the target is Vascular endothelial growth factor receptor 2 (Homo sapiens) (UniProt P35968). As to the kind of experiment: Inhibition of human KDR cytoplasmic domain expressed in baculovirus assessed as substrate phosphorylation using fluorescence-labelled peptides as substrate at 8 uM after 90 mins by microfluidic peptide phosphorylation assay.
Assay [8] addresses Protein kinase C theta type (Homo sapiens) (UniProt Q04759). In words: Inhibition of human truncated PKC theta expressed in baculovirus assessed as substrate phosphorylation using fluorescence-labelled peptides as substrate at 8 uM after 90 mins by microfluidic peptide phosphorylation assay.
The target of assay [9] is T2, Testis-specific serine/threonine-protein kinase 1 (Homo sapiens) (UniProt Q9BXA7).
T2 sequence (whole entry): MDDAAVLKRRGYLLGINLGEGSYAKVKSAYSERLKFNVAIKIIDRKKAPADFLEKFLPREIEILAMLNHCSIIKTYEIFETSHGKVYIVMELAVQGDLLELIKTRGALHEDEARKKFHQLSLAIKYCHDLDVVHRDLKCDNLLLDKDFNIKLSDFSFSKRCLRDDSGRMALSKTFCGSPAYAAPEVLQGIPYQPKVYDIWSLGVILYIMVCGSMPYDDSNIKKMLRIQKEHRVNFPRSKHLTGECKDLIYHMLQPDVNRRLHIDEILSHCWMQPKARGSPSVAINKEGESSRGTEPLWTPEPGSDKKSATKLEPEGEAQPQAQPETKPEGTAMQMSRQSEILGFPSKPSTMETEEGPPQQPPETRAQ
As to the kind of experiment: Inhibition of human full length TSSK1 expressed in baculovirus assessed as substrate phosphorylation using fluorescence-labelled peptides as substrate at 1000 uM after 90 mins by microfluidic peptide phosphorylation assay.

Assay [10] has as its target Ribosomal protein S6 kinase alpha-2 (Homo sapiens) (UniProt Q15349). As to the kind of experiment: Inhibition of human full length RSK3 expressed in baculovirus assessed as substrate phosphorylation using fluorescence-labelled peptides as substrate at 1000 uM after 90 mins by microfluidic peptide phosphorylation assay.
For assay [11], the target named is Platelet-derived growth factor receptor alpha (Homo sapiens) (UniProt P16234). As to the kind of experiment: Inhibition of human PDGFR alpha catalytic domain expressed in baculovirus assessed as substrate phosphorylation using fluorescence-labelled peptides as substrate at 1000 uM after 90 mins by microfluidic peptide phosphorylation assay.
For assay [12], the target named is Insulin-like growth factor 1 receptor (Homo sapiens) (UniProt P08069). In words: Inhibition of human IGF1R catalytic domain expressed in baculovirus assessed as substrate phosphorylation using fluorescence-labelled peptides as substrate at 2 uM after 90 mins by microfluidic peptide phosphorylation assay.
Assay [13] concerns the target Serine/threonine-protein kinase Chk2 (Homo sapiens) (UniProt O96017). As to the kind of experiment: Inhibition of human full length CHK2 expressed in baculovirus assessed as substrate phosphorylation using fluorescence-labelled peptides as substrate at 2 uM after 90 mins by microfluidic peptide phosphorylation assay.
Assay [14] deals with Tyrosine-protein kinase Lck (Homo sapiens) (UniProt P06239). As to the kind of experiment: Inhibition of human full length LCK expressed in baculovirus assessed as substrate phosphorylation using fluorescence-labelled peptides as substrate at 2 uM after 90 mins by microfluidic peptide phosphorylation assay.
The target in assay [15] is Casein kinase I isoform delta (Homo sapiens) (UniProt P48730). In words: Inhibition of human CK1D catalytic domain expressed in Escherichia coli cell assessed as substrate phosphorylation using fluorescence-labelled peptides as substrate at 2 uM after 90 mins by microfluidic peptide phosphorylation assay.
Assay [16] deals with Protein kinase C beta type (Homo sapiens) (UniProt P05771). In words: Inhibition of human full length PKC beta2 expressed in baculovirus assessed as substrate phosphorylation using fluorescence-labelled peptides as substrate at 2 uM after 90 mins by microfluidic peptide phosphorylation assay.
For assay [17], the target named is Casein kinase I isoform delta (Homo sapiens) (UniProt P48730). As to the kind of experiment: Inhibition of human CK1D catalytic domain expressed in Escherichia coli cell assessed as substrate phosphorylation using fluorescence-labelled peptides as substrate at 70 uM after 90 mins by microfluidic peptide phosphorylation assay.
Assay [18] deals with Protein kinase C eta type (Homo sapiens) (UniProt P24723). As to the kind of experiment: Inhibition of human truncated PKC eta expressed in baculovirus assessed as substrate phosphorylation using fluorescence-labelled peptides as substrate at 70 uM after 90 mins by microfluidic peptide phosphorylation assay.
Assay [19] concerns the target Insulin-like growth factor 1 receptor (Homo sapiens) (UniProt P08069). In words: Inhibition of human IGF1R catalytic domain expressed in baculovirus assessed as substrate phosphorylation using fluorescence-labelled peptides as substrate at 70 uM after 90 mins by microfluidic peptide phosphorylation assay.
Assay [20] has as its target Fibroblast growth factor receptor 1 (Homo sapiens) (UniProt P11362). In words: Inhibition of human FGFR1 catalytic domain expressed in baculovirus assessed as substrate phosphorylation using fluorescence-labelled peptides as substrate at 70 uM after 90 mins by microfluidic peptide phosphorylation assay.

The structures appear in SMILES notation.

Casein kinase I isoform delta (Homo sapiens), sequence (P48730 whole entry, looked up, the tested form may be a part, canonical isoform): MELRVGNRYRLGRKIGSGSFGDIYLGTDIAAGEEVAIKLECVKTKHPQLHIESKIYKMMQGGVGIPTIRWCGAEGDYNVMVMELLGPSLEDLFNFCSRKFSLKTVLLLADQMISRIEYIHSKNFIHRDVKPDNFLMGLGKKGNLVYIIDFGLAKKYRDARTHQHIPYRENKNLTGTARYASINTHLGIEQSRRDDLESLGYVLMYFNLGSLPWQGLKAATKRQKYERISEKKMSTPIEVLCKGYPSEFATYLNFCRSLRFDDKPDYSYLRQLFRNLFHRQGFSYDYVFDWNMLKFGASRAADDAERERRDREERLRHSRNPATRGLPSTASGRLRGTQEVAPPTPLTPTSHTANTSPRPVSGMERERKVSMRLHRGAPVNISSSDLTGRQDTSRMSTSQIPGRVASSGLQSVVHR
MAP kinase-activated protein kinase 3 (Homo sapiens), sequence (Q16644 whole entry, looked up): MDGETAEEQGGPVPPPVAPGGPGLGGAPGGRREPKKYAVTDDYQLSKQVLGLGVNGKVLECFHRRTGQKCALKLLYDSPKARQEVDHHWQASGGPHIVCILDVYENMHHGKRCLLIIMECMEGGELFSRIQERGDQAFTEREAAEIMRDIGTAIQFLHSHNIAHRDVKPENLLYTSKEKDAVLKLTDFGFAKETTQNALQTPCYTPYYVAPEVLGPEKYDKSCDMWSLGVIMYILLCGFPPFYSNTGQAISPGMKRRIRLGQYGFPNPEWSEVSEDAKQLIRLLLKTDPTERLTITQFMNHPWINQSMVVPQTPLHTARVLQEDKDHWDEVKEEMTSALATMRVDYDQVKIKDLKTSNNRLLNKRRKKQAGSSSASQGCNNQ
Protein kinase C beta type (Homo sapiens), sequence (P05771 2-671 limits assumed): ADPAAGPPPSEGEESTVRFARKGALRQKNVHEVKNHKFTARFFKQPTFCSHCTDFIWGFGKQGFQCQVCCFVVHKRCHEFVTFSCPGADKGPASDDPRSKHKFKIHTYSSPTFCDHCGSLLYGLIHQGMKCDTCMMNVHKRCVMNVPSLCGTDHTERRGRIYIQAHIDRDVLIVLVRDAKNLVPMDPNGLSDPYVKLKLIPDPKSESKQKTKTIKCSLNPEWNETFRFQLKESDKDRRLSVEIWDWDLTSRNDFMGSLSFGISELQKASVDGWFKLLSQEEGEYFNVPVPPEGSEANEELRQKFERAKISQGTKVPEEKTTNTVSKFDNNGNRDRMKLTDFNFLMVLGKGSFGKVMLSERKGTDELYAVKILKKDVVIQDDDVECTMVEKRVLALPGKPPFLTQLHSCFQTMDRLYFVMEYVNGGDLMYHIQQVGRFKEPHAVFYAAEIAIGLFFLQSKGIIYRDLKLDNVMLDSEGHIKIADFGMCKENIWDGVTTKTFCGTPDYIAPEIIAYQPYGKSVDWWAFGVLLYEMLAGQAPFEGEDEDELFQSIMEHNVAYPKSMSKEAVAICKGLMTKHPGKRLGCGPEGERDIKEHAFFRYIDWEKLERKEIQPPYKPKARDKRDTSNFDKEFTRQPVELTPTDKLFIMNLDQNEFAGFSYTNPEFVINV
Protein kinase C eta type (Homo sapiens), sequence (P24723 whole entry, the tested form may be a part): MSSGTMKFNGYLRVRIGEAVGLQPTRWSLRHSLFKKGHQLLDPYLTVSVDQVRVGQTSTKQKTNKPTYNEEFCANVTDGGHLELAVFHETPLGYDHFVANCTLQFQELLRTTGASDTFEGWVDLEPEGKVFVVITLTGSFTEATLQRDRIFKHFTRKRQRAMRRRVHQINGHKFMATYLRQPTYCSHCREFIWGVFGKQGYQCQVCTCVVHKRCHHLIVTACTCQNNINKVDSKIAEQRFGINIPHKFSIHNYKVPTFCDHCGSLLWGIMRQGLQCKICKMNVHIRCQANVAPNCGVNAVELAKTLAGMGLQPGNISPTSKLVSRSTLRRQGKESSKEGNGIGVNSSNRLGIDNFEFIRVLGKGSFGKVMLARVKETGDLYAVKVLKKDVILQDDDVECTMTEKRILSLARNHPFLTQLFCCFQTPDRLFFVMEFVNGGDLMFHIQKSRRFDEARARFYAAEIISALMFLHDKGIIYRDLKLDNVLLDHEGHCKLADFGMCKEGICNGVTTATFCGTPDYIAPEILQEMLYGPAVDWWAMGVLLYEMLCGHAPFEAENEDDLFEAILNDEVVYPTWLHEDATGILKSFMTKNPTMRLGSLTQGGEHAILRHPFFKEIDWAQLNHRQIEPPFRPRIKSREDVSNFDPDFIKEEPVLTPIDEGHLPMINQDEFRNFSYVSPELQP
Vascular endothelial growth factor receptor 2 (Homo sapiens), sequence (P35968 whole entry, the tested form may be a part): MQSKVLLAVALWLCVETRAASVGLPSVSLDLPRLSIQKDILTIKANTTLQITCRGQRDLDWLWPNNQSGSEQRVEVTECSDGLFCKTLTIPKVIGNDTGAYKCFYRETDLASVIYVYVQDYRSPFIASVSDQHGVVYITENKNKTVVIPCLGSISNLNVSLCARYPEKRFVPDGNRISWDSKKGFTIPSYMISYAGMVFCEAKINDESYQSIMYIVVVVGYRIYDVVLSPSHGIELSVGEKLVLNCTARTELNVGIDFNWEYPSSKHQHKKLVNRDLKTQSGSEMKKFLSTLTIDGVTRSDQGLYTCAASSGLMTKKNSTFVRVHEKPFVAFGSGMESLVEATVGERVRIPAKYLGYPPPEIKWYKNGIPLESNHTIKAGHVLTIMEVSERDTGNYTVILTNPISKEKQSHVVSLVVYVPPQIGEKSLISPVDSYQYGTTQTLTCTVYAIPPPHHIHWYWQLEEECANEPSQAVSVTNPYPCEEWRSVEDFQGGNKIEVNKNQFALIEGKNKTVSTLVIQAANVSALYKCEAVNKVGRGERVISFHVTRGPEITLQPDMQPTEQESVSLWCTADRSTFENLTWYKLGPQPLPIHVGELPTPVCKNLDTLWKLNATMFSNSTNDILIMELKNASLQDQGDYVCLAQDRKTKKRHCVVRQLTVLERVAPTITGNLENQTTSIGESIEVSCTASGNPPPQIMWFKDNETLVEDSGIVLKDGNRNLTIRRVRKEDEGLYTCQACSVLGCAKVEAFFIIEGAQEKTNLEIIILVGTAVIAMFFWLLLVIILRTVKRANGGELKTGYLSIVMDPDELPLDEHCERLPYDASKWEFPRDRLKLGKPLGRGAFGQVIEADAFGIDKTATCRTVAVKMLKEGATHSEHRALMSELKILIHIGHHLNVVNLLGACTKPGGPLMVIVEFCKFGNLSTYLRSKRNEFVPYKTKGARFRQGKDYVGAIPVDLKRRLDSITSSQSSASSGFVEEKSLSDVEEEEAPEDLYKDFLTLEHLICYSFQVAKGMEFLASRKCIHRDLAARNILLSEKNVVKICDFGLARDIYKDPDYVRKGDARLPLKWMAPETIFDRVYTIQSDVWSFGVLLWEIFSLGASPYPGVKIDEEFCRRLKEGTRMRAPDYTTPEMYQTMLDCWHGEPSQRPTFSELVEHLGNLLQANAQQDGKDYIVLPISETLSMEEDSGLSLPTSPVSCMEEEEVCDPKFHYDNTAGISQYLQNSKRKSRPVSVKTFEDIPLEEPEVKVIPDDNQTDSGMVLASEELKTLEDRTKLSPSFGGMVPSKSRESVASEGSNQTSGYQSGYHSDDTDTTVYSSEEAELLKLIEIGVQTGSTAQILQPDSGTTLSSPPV
Fibroblast growth factor receptor 1 (Homo sapiens), sequence (P11362 22-822 limits assumed): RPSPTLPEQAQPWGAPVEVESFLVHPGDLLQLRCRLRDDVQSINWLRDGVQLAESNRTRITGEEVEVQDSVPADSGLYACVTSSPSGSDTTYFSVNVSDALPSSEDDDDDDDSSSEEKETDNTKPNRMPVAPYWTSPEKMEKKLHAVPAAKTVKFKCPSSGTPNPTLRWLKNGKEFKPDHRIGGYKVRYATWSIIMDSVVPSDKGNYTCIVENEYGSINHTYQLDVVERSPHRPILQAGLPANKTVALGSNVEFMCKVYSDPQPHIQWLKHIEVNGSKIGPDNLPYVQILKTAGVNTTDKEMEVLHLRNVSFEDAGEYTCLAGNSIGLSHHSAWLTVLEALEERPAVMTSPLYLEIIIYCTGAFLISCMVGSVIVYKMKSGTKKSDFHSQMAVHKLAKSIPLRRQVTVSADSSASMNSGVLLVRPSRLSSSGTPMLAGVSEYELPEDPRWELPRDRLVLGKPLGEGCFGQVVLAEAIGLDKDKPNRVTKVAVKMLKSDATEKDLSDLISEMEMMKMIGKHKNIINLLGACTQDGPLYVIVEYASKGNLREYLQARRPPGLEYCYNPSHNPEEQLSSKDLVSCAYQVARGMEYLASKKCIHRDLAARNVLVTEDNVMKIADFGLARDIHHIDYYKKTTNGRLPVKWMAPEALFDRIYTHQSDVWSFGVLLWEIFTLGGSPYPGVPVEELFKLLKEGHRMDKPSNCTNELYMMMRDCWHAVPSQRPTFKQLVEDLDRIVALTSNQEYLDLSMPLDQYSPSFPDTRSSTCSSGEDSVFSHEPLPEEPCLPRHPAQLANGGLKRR
Glycogen synthase kinase-3 beta (Homo sapiens), sequence (P49841 whole entry, looked up, the tested form may be a part): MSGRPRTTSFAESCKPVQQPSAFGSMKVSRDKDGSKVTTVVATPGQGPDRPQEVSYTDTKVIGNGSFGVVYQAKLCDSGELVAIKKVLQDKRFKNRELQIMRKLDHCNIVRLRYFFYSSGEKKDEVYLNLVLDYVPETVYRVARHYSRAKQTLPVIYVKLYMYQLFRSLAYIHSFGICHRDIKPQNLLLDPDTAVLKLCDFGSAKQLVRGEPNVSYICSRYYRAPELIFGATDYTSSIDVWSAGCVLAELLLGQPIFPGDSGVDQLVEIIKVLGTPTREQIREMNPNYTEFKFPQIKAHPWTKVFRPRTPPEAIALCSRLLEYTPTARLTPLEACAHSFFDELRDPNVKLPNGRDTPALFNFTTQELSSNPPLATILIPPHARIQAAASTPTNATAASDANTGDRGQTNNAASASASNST

As usually defined, the inhibition is the drop in the measured response relative to a control, in per cent. As for `c1nc(N2CCOCC2)c2nc[nH]c2n1`, the inhibition in assay [1] turned out to be 55%; in assay [2] it was 68%.
As for `NCCc1ccc(-c2ncnc3[nH]cnc23)cc1`, the inhibition in [3] was found to be 55%; in assay [4], 40%; in assay [5], 24%.
As to `NCC1CN(c2ncnc3[nH]c4cnccc4c23)CCO1` (stereo not given), the inhibition in assay [6] is 56.5%.
As to `NCC1CCN(c2ncnc3[nH]ccc23)CC1`, the inhibition in [7] was 50%; in assay [8], 67.5%.
`c1cnc2[nH]ccc2c1`: the inhibition in assay [9] was found to be 52.5%; in assay [10], 71%; in [11], 31.5%.
With `NC1CCN(c2ncnc3[nH]ccc23)CC1`, the inhibition in [12] came to 0%; in [13] it was 0%; in [14] it was 4.5%; in [15] it was 0%; in assay [16], 62.5%.
As to `CNCc1ccc(-c2ncnc3[nH]cnc23)cc1`, the inhibition turned out to be 46% in [17], 78.5% in assay [18], 0% in [19] and 43% in assay [20].
